Read-outs that look alike come from different tables or passages of the source. Residues, ends and D or L forms follow the SMILES beside them.
How the values were obtained:
h-mT1R2-471/mT1R3 = h-mT1R2-471/mT1R3 (UniProt Q8TE23+Q925D8, A537S/A564V/A568V/A570T/A649T/A658V/A782V/D480N/E530V/E534N/E542M/E548N/F525Y/F665L/G696N/G701T/H484Y/H528R/I481V/I486P/I490V/I510L/I518V/I595M/I643V/I645L/I692L/I695G/K476T/K504M/K626T/K714N/L471T/L521P/L571I/L578I/L610P/L631F/L636F/L639V/L688V/L702I/L734M/L800F/M492I/M616G/M682V/M690V/M748V/N477Y/N540G/N541S/N721H/P638T/P824S/Q472E/Q474R/Q479S/Q536L/Q546K/Q555R/Q676H/R473T/R498S/R667S/S501P/S547N/S550A/S628F/S663R/S670G/S681F/S703N/S727G/S784D/S804G/T529S/T549I/T609V/T629S/T642S/T705I/T706G/T716I/V508I/V512P/V557A/V585L/V613L/V617M/V673M/V687A/V691A/V694A/V718L/V741L/V774I/V791M/Y533F/Y615F/Y671F/Y769S/Y783H); details: Table 4; genes h-mT471/mT3 (h-mT1R2-471, mT1R3); HEK293E cells
h-mT1R2-481/mT1R3 = h-mT1R2-481/mT1R3 (UniProt Q8TE23+Q925D8, A537S/A564V/A568V/A570T/A649T/A658V/A782V/E530V/E534N/E542M/E548N/F525Y/F665L/G696N/G701T/H484Y/H528R/I481V/I486P/I490V/I510L/I518V/I595M/I643V/I645L/I692L/I695G/K504M/K626T/K714N/L521P/L571I/L578I/L610P/L631F/L636F/L639V/L688V/L702I/L734M/L800F/M492I/M616G/M682V/M690V/M748V/N540G/N541S/N721H/P638T/P824S/Q536L/Q546K/Q555R/Q676H/R498S/R667S/S501P/S547N/S550A/S628F/S663R/S670G/S681F/S703N/S727G/S784D/S804G/T529S/T549I/T609V/T629S/T642S/T705I/T706G/T716I/V508I/V512P/V557A/V585L/V613L/V617M/V673M/V687A/V691A/V694A/V718L/V741L/V774I/V791M/Y533F/Y615F/Y671F/Y769S/Y783H); details: genes h-mT481/mT3 (h-mT1R2-481, mT1R3), HEK293E cells
h-mT1R2-481/mT1R3, sequence (Q8TE23 with tags, fused parts or gaps with the stated changes limits assumed): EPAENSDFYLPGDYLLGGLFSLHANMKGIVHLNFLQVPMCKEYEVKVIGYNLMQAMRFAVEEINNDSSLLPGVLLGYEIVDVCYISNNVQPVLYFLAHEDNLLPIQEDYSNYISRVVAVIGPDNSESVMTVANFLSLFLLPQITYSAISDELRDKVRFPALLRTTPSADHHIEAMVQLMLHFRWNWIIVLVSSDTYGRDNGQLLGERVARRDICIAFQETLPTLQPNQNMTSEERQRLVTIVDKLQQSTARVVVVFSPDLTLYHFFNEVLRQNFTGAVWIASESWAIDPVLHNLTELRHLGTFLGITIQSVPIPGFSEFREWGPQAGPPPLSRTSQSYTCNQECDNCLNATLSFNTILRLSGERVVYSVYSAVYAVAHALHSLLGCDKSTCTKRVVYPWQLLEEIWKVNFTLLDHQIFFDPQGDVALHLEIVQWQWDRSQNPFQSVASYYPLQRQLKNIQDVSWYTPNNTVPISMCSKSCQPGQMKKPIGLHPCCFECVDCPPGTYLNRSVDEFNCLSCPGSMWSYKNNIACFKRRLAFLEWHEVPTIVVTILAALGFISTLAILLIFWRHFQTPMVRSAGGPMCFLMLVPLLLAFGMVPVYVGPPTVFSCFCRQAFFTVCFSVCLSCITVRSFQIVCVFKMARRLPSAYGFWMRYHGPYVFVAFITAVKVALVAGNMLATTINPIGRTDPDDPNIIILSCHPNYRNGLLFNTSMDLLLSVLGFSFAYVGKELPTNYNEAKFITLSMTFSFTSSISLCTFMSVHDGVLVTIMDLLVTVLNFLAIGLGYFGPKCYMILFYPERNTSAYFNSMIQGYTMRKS
h-mT1R2-481/mT1R3, sequence (Q925D8 21-858, stated change not applied): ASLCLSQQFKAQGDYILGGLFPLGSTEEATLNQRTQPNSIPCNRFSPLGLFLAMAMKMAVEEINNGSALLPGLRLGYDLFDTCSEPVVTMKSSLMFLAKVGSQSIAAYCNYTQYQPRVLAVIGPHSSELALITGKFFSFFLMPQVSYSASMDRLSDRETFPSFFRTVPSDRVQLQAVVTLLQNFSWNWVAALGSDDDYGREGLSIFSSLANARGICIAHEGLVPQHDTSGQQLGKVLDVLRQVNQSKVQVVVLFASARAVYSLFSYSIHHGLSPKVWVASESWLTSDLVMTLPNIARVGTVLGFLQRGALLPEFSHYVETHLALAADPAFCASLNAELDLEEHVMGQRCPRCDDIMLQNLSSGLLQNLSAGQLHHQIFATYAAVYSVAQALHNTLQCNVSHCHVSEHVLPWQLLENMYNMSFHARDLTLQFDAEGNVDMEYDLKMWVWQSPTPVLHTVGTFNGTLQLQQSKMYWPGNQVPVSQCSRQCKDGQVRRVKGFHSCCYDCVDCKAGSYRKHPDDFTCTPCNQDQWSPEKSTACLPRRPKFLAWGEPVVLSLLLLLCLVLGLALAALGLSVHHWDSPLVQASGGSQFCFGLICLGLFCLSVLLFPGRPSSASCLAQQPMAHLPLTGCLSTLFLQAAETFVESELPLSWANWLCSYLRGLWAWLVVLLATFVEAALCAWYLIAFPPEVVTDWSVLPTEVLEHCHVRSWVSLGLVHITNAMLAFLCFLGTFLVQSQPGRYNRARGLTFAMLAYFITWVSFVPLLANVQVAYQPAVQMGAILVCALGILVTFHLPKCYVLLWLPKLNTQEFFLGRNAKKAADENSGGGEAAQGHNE

h-mT1R2-471/mT1R3, sequence (Q8TE23 with tags, fused parts or gaps with the stated changes limits assumed): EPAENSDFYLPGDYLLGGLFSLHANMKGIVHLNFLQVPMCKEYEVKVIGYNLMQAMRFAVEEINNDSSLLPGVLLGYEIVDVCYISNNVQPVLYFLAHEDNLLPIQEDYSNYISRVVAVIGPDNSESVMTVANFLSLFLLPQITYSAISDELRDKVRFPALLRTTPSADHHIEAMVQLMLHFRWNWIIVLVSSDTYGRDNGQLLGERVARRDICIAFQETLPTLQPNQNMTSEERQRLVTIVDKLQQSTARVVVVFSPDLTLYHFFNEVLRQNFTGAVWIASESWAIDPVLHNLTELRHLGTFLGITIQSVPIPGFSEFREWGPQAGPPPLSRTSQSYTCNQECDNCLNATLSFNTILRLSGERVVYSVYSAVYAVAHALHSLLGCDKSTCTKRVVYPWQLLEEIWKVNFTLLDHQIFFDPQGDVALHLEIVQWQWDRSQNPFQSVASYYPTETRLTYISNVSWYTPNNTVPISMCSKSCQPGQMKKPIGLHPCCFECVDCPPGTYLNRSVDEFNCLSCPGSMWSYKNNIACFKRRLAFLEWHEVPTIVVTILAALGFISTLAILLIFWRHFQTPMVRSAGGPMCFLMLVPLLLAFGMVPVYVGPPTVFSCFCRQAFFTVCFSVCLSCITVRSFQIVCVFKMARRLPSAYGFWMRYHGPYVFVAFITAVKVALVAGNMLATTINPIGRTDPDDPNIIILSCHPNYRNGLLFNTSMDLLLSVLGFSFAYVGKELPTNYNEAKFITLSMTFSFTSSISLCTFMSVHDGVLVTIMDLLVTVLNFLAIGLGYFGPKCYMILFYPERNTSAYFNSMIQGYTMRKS
h-mT1R2-471/mT1R3, sequence (Q925D8 21-858, stated change not applied): as the sequence (Q925D8 21-858, stated change not applied) above

Row | Structure (SMILES) | S/N (h-mT1R2-471/mT1R3) | S/N (h-mT1R2-481/mT1R3; Table 3) | S/N (h-mT1R2-481/mT1R3; Table 4)
1 | OC[C@H]1O[C@H](O[C@]2(CCl)O[C@H](CCl)[C@@H](O)[C@@H]2O)[C@H](O)[C@@H](O)[C@H]1Cl [Sucralose, sucralose] | 4.6 | 5.0 | 5.7
2 | CC1=CC(=O)NS(=O)(=O)O1 [Acesulfame K, acesulfame potassium] | 3.1 | 3.0 | 3.7
3 | COC(=O)[C@H](Cc1ccccc1)NC(=O)[C@H](CC(=O)O)NCCCc1ccc(OC)c(O)c1 [Advantame, advantame] | 5.5 | 6.6 | 7.1
4 | OC[C@H]1O[C@@](CO)(O[C@H]2O[C@H](CO)[C@@H](O)[C@H](O)[C@H]2O)[C@@H](O)[C@@H]1O [Sucrose, sucrose] | 3.5 | 2.8 | 3.9
5 | COC(=O)[C@H](Cc1ccccc1)NC(=O)[C@H](CC(=O)O)NCCC(C)(C)C [Neotame, neotame] | 4.4 | 5.4 | 5.4
6 | C[C@H](NC(=Nc1ccc(C#N)cc1)NCC(=O)O)c1ccccc1 [SC-45647, [3-[(S)-1-phenylethyl]-2-(4-cyanophenyl)guanidino]acetic acid] | 4.2 | 5.1 | 5.2
7 | O=C1NS(=O)(=O)c2ccccc21.[Na] [Saccharin Na, sodium saccharin] | 3.6 | 3.9 | 4.4
8 | COC(=O)[C@H](Cc1ccccc1)NC(=O)[C@@H](N)CC(=O)O [Aspartame, aspartame] (HELM PEPTIDE1{D.F.[CO[*:1]]}$$$$V2.0) | 4.6 | 4.3 | 5.8

Source: US9341616B2, “Sweet taste receptor chimeric proteins and use thereof” (AJINOMOTO CO., INC., priority 2014, dated 2016)
